From patent US20260335294A1, “TREATING CONGENITAL DISORDERS OF GLYCOSYLATION” (Mayo Foundation for Medical Education and Research, priority 2022, published 2026)

Columns and labels:
Assay type in all cases: in vivo, human
[1] = test system: PMM2-CDG patients; assay: Clinical observation of lower body strength and speech; conditions: P7
Experimental: Two patients were started on epalrestat on single patient investigational new drug (IND) (P5 IRB: 19-010017; IND #145262; P6 Protocol PMM2-CDG-001/A). Epalrestat was initiated on the parents' own initiative in the third patient (P7). Two patients were in their second year of epalrestat treatment, while the third, was in the 3rd year of treatment. Physical, neurological, and biochemical examinations were performed in 3 PMM2-CDG patients at baseline, and at every three months after the start of the epalrestat treatment. Patients underwent NPCRS phenotype severity assessment and biological sampling at every visit. Epalrestat (Ono Pharmaceuticals, Osaka, Japan) was taken orally 3 times per day (TID) before meals in a divided dose, with dosage escalation throughout the treatment. The pharmacological profile of epalrestat was as described elsewhere (Ligezka et al, Ann. Neurol., 90(6):887-900 (2021)). The starting dosage in P5 and P6 was 0.8 mg/kg/day, while P7 was started on 0.5 mg/kg/day due to their young age. P7 dosage was increased to 0.8 mg/day after a month, once safety was established. […] Quantification of goal attainment levels is done on a 5-point scale ranging from −2 to +2, with 0 indicating the expected level of goal attainment. Three individual goals were established by each patient (parent) at baseline and the progress was annually assessed. […]

[2] = test system: PMM2-CDG patients; assay: Goal attainment scale (GAS) in patients on epalrestat
Experimental: (§1) Two patients were started on epalrestat on single patient investigational new drug (IND) (P5 IRB: 19-010017; IND #145262; P6 Protocol PMM2-CDG-001/A). Epalrestat was initiated on the parents' own initiative in the third patient (P7). Two patients were in their second year of epalrestat treatment, while the third, was in the 3rd year of treatment. Physical, neurological, and biochemical examinations were performed in 3 PMM2-CDG patients at baseline, and at every three months after the start of the epalrestat treatment. Patients underwent NPCRS phenotype severity assessment and biological sampling at every visit. Epalrestat (Ono Pharmaceuticals, Osaka, Japan) was taken orally 3 times per day (TID) before meals in a divided dose, with dosage escalation throughout the treatment. The pharmacological profile of epalrestat was as described elsewhere (Ligezka et al, Ann. Neurol., 90(6):887-900 (2021)). The starting dosage in P5 and P6 was 0.8 mg/kg/day, while P7 was started on 0.5 mg/kg/day due to their young age. P7 dosage was increased to 0.8 mg/day after a month, once safety was established. Blood and urine samples were collected routinely. Urine polyols, carbohydrate deficient transferrin (CDT), anti-thrombin III (ATIII), liver enzymes (ALT, AST), and complete blood count (CBC) were performed. Modified Brief Ataxia Rating Scale was used to assess ataxia in the 2 patients (P5, P6; P7 was not eligible for the test due to age). The modified BARS scale included Archimedes spiral test, but not the abnormalities of the ocular pursuit system and the scale range was 0-54. Goal attainment scale (GAS) was administered as described per study protocol (ClinicalTrials.gov Identifier: NCT04199000). Quantification of goal attainment levels is done on a 5-point scale ranging from −2 to +2, with 0 indicating the expected level of goal attainment. Three individual goals were established by each patient (parent) at baseline and the progress was annually assessed. Goals included: walking without assistance (Goal #1 P5, P6), communicating with strangers (Goal #2 P5, P6), independent toilet training (Goal #3 P5), to be able to have a healthy and independent life (Goal #3 P6), to be able to equally play with peers (Goal #1 P7), normalization of laboratory results (liver enzymes) (Goal #2 P7), and improved balance to stand and walk (Goal #3 P7).

[3] = test system: PMM2-CDG patients; assay: Liver enzymes (AST, ALT) in patients on epalrestat; conditions: for ALT: C < 45 U/l; for AST: C: < 50 U/l
From the text: The primary objective of the study was to assess the efficacy and safety of epalrestat treatment in 3 PMM2-CDG pediatric subjects prior to a planned Phase III clinical trial (Oral epalrestat therapy in Pediatric Subjects with PMM2-CDG, NCT04925960). The secondary objective was to assess the ability of epalrestat to improve clinically relevant aspects of PMM2-CDG such as increased urine polyols (sorbitol, mannitol), abnormal glycosylation (carbohydrate deficient transferrin), abnormal coagulation (ATIII=antithrombin III), impaired liver function (ALT=Alanine Transaminase, AST=Aspartate Transaminase), neurologic function (Brief Ataxia Rating Scale=BARS), severity of phenotype (Nijmegen Pediatric CDG Rating Scale=NPCRS). The ability of epalrestat to inhibit polyol production was monitored by evaluating urine polyol levels (sorbitol, mannitol), which are elevated in PMM2-CDG. Next, carbohydrate deficient transferrin, which is abnormal in PMM2-CDG, was evaluated in order to assess improvement of glycosylation following epalrestat treatment. CDT mono-oligo/dioligo ratio and a-oligo/dioligo ratio are used to evaluate glycosylation abnormalities. Transferrin normally occurs with two glycan chains (di-oligo). In the case of glycosylation abnormalities, glycan chains are missing (A-oligo transferrin has no glycan chains, mono-oligo has one glycan chain, di-oligo has two glycan chains). The higher ratio of a-oligo/di-oligo and mono-oligo/di-oligo indicate glycosylation abnormalities are present. Therefore, improvement in a-oligo/di-oligo and mono-oligo/di-oligo ratios can be used to monitor improvement or worsening of glycosylation status. Changes in the liver enzymes AST, ALT, which are frequently elevated in PMM2-CDG, were monitored both as part of a safety study and as part of monitoring clinical improvement in coagulation. Neurologic improvement was assessed by modified BARS scores in 2 patients (3rd patient was not eligible for the test due to age at the start of the trial). NPCRS was assessed at every visit to assess changes in the severity of the patients' phenotype. Additionally, the frequency of adverse events, changes in vital signs, complete blood count, and changes in BMI were monitored.
as §1, with “Quantification of goal attainment levels is done on a 5-point scale ranging from −2 to +2, with 0 indicating the expected level of goal attainment. Three individual goals were established by each patient (parent) at baseline and the progress was annually assessed. Goals included: walking without assistance (Goal #1 P5, P6), communicating with strangers (Goal #2 P5, P6), independent toilet training (Goal #3 P5), to be able to have a healthy and independent life (Goal #3 P6), to be able to equally play with peers (Goal #1 P7), normalization of laboratory results (liver enzymes) (Goal #2 P7), and improved balance to stand and walk (Goal #3 P7).” left out

CC(/C=C1\SC(=S)N(CC(=O)O)C1=O)=C\c1ccccc1 [epalrestat]
lower body strength and speech [1]: improvement in lower body strength and speech | Goal attainment scale, Goal 2 (scale −2 to +2) ([2]; P5, 12 months, 1.5 mg/kg day, communicating with strangers, baseline −2): −1 | Goal attainment scale, Goal 3 (scale −2 to +2) ([2]; P5, 12 months, 1.5 mg/kg day, independent toilet training, baseline −2): −2 | Goal attainment scale, Goal 1 (scale −2 to +2) ([2]; P5, 12 months, 1.5 mg/kg day, walking without assistance, baseline −2): −1 | Goal attainment scale, Goal 2 (scale −2 to +2) ([2]; P5, 24 months, 2 mg/kg day, communicating with strangers, baseline −2): −1 | Goal attainment scale, Goal 3 (scale −2 to +2) ([2]; P5, 24 months, 2 mg/kg day, independent toilet training, baseline −2): −2 | Goal attainment scale, Goal 1 (scale −2 to +2) ([2]; P5, 24 months, 2 mg/kg day, walking without assistance, baseline −2): −1 | Goal attainment scale, Goal 2 (scale −2 to +2) ([2]; P6, 12 months, 1.5 mg/kg day, communicating with strangers, baseline −1): −1 | Goal attainment scale, Goal 3 (scale −2 to +2) ([2]; P6, 12 months, 1.5 mg/kg day, healthy and independent life, baseline −2): −2 | Goal attainment scale, Goal 1 (scale −2 to +2) ([2]; P6, 12 months, 1.5 mg/kg day, walking without assistance, baseline −2): −1 | Goal attainment scale, Goal 1 (scale −2 to +2) ([2]; P7, 12 months, 1.5 mg/kg day, equally play with peers, baseline −2): −2 | Goal attainment scale, Goal 3 (scale −2 to +2) ([2]; P7, 12 months, 1.5 mg/kg day, improved balance to stand and walk, baseline −2): −1 | Goal attainment scale, Goal 2 (scale −2 to +2) ([2]; P7, 12 months, 1.5 mg/kg day, normalization of laboratory results (liver enzymes), baseline −2): −1 | clinical improvement and quality of life (GAS, self-reported) ([2]; all patients, words): all patients self-reported clinical improvement and quality of life improvement | ALT ([3]; P5, 12 months, 1.5 mg/kg day, baseline 23): 24 U/L | AST ([3]; P5, 12 months, 1.5 mg/kg day, baseline 48): 37 U/L | ALT ([3]; P5, 24 months, 2 mg/kg day, baseline 23): 25 U/L | AST ([3]; P5, 24 months, 2 mg/kg day, baseline 48): 34 U/L | ALT ([3]; P5, 28 months, 3 mg/kg day, baseline 23): 25 U/L | AST ([3]; P5, 28 months, 3 mg/kg day, baseline 48): 40 U/L | liver transaminase levels ([3]; P5-P7, words): improvement | AST ([3]; P6, 12 months, 1.5 mg/kg day, baseline 58): 40 U/L | ALT ([3]; P6, 12 months, 1.5 mg/kg day, baseline 67): 32 U/L | AST ([3]; P6, 18 months, 3 mg/kg day, baseline 58): 38 U/L | ALT ([3]; P6, 18 months, 3 mg/kg day, baseline 67): 49 U/L | AST ([3]; P7, 12 months, 1.5 mg/kg day, baseline 548): 80 U/L | ALT ([3]; P7, 12 months, 1.5 mg/kg day, baseline 997): 105 U/L
